Laboratory results as given in PMC12394658, “Discovery of Zharp1-163 as a dual inhibitor of ferroptosis and necroptosis for the treatment of inflammatory disorders and kidney injury” (Cell Death Discovery, 2025).

Tests used:
Experiment in all cases: biochemical
Design in all cases: Kinase selectivity panel of 81 human kinases, ADP-Glo or HTRF, per cent inhibition at 1 uM
AKT1 = AKT1 (Homo sapiens, UniProt P31749)
Description: (§1) We next sought to determine the binding affinity of Zharp1-163 for RIPK1 or RIPK3 via a binding assay (Fig. 4A). […] Further, we evaluated the selectivity of Zharp1-163 against a panel of 81 kinases (at 1000 nM). […] To elucidate the binding interactions between Zharp1-163 and RIPK1 kinase, we conducted molecular docking studies using the RIPK1 crystal structure (PDB ID: 4NEU). The predicted binding conformations and interaction patterns between Zharp1-163 and the RIPK1 kinase domain are presented in Fig. 4D, E. Like the cocrystallized ligand in the 4NEU crystal complex, Zharp1-163 was predicted to act as a typical type II kinase inhibitor, interacting with the DLG (Asp156-Leu157-Gly158)-out conformation of RIPK1 (Fig. 4D, E). The 2-aminoimidazo [1,2-a] pyridine moiety of Zharp1-163 formed hydrogen bonds with Met95 in the hinge region. Furthermore, the carboxylate group of Zharp1-163 established hydrogen bonds with Asp156 in the DLG-out region. Additionally, the saturated ring of Zharp1-163 was deeply embedded within the hydrophobic allosteric pocket formed by the residues Met66, Met67, Leu70, Val76, Leu129, and Leu159, which is created by the DLG-out conformation in RIPK1 (Fig. 4D, E).  Fig. 4 Zharp1-163 is a selective inhibitor of RIPK1 kinase activity. A Binding affinity curve of Zharp1-163 with RIPK1 and RIPK3. B In an in vitro kinase activity assay, recombinant RIPK1 was incubated with Zharp1-163, after which RIPK1 kinase activity was determined by measuring ATP levels via a luciferase reporter assay system. […] Kinases are marked with dots, where the color of each kinase indicates the level of inhibition achieved by Zharp1-163. D Predicted binding conformation of Zharp1-163. E Schematic representation of the interaction patterns between Zharp1-163 and the key residues in the binding pocket of the RIPK1 kinase. […] NIH3T3-RIPK3 cells were pretreated with the indicated concentrations of Zharp1-163 for 2 h and then treated with AP20187 (100 nM) for 24 h. Cell viability was determined by measuring ATP levels. […] HeLa-MLKL (1–190) cells were pretreated with the indicated concentrations of Zharp1-163 for 2 h and subsequently treated with AP20187 (100 nM) for 24 h. Cell viability was determined by measuring ATP levels. H Viability of IFNβ-primed MEFs at 18 h after stimulation with poly(I:C) plus z-VAD and treatment with Zharp1-163 (10 μM). I Effects of different concentrations of Zharp1-163 on WT or RIPK1 KO HT-29 cells. Cell viability was determined by measuring ATP levels. The data are presented as the mean ± SD of triplicate samples.

BRSK2 = BRSK2 (Homo sapiens, UniProt Q8IWQ3)
Description: as §1

CHK2 = target: T1, CHK2 (Homo sapiens, UniProt O96017)
T1 construct: gene CHEK2
Description: as §1

CK1γ3 = target: T2, CK1γ3 (Homo sapiens, UniProt Q9Y6M4)
T2 construct: gene CSNK1G3
Description: as §1

DYRK1B = DYRK1B (Homo sapiens, UniProt Q9Y463)
Description: as §1

IRAK4 = IRAK4 (Homo sapiens, UniProt Q9NWZ3)
Description: as §1

MAPKAPK2 = MAPKAPK2 (Homo sapiens, UniProt P49137)
Description: as §1

MLK1 = target: T3, MLK1 (Homo sapiens, UniProt P80192)
T3 construct: gene MAP3K9
Description: as §1

MRCKβ = target: T4, MRCKβ (Homo sapiens, UniProt Q9Y5S2)
T4 construct: gene CDC42BPB
Description: as §1

NEK2 = NEK2 (Homo sapiens, UniProt P51955)
Description: as §1

PKACα = target: T5, PKACα (Homo sapiens, UniProt P17612)
T5 construct: gene PRKACA
Description: as §1

PLK1 = PLK1 (Homo sapiens, UniProt P53350)
Description: as §1

QIK = target: T6, QIK (Homo sapiens, UniProt Q9H0K1)
T6 construct: gene SIK2
Description: as §1

RIPK2 = RIPK2 (Homo sapiens, UniProt O43353)
Description: as §1

IRAK4, sequence (Q9NWZ3 whole entry): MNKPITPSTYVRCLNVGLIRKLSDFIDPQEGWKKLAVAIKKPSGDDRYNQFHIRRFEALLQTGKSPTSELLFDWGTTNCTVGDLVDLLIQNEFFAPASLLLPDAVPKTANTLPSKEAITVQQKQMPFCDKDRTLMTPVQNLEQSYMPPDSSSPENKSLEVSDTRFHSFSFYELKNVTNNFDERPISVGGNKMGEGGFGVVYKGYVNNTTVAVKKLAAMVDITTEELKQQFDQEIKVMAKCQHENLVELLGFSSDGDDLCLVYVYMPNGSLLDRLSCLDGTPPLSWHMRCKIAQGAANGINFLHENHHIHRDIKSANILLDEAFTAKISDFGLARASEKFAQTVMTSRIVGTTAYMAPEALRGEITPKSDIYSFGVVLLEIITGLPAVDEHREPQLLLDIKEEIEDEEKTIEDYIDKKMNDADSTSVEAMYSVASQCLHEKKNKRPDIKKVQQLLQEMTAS
NEK2, sequence (P51955 whole entry): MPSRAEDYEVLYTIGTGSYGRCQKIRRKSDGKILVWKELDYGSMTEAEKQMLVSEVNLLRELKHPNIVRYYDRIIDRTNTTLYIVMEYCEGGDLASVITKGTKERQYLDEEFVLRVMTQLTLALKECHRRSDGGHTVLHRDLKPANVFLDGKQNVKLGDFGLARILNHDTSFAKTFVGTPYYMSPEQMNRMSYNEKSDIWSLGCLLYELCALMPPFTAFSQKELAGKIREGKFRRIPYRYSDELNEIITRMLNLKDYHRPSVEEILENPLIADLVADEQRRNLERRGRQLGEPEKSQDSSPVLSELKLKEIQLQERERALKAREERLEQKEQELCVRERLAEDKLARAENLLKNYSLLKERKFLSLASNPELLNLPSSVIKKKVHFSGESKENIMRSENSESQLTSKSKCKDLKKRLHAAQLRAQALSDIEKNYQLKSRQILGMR
RIPK2, sequence (O43353 whole entry): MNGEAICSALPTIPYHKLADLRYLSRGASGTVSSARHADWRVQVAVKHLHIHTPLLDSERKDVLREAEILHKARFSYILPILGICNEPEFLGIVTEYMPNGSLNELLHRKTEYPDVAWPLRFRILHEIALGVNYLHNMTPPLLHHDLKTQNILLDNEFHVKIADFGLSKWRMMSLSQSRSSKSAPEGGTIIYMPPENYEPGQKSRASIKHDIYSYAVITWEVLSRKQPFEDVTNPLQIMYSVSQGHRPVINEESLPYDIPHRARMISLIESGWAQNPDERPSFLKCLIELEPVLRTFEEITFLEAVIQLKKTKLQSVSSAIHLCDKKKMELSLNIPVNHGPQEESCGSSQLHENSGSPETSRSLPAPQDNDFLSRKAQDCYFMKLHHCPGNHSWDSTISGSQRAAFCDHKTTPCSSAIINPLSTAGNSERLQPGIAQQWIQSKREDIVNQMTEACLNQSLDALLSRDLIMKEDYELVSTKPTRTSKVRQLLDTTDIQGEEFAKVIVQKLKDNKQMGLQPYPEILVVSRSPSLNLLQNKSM
T3 sequence (P80192 whole entry): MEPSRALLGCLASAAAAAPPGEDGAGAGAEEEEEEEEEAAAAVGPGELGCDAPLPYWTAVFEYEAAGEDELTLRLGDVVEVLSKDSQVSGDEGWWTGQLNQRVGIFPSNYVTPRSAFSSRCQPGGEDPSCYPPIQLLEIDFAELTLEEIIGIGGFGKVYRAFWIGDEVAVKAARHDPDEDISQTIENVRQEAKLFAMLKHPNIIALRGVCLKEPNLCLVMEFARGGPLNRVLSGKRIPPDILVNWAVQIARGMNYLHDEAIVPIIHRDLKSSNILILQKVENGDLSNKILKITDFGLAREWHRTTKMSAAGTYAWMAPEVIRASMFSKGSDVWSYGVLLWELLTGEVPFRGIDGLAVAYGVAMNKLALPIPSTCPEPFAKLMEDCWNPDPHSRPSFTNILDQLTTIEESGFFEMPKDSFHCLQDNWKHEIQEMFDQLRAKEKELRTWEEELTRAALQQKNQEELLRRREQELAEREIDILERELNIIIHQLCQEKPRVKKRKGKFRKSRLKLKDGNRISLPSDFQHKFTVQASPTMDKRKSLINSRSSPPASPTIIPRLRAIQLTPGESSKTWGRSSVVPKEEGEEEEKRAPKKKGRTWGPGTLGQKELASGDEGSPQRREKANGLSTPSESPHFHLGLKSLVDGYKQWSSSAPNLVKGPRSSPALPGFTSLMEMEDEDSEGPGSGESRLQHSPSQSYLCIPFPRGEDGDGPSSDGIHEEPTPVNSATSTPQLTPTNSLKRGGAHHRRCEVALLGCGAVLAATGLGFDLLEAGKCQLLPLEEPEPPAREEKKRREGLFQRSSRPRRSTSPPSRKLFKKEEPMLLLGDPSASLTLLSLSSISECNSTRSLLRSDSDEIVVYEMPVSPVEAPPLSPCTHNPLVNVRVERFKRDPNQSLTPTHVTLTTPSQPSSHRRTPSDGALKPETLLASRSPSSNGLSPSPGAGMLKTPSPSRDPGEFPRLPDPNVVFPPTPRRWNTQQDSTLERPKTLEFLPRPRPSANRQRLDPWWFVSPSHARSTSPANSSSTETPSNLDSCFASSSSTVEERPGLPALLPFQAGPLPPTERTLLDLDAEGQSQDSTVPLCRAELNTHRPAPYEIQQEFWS
PLK1, sequence (P53350 whole entry): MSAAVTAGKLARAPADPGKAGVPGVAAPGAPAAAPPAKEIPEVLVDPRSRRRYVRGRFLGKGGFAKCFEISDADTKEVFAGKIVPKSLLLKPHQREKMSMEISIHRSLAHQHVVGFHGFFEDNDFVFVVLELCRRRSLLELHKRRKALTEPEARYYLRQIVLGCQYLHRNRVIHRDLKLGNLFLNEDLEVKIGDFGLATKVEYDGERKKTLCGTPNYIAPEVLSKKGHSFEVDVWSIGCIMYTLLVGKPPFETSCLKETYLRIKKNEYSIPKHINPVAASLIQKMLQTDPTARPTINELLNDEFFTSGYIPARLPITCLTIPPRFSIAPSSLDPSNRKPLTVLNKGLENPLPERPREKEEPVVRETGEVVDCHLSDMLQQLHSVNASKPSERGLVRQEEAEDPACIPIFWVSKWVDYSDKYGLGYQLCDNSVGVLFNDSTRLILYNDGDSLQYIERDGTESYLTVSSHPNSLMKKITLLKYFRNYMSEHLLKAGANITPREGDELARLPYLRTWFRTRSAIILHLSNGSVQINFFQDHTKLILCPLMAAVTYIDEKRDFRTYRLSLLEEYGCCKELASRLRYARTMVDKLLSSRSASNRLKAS
T6 sequence (Q9H0K1 whole entry): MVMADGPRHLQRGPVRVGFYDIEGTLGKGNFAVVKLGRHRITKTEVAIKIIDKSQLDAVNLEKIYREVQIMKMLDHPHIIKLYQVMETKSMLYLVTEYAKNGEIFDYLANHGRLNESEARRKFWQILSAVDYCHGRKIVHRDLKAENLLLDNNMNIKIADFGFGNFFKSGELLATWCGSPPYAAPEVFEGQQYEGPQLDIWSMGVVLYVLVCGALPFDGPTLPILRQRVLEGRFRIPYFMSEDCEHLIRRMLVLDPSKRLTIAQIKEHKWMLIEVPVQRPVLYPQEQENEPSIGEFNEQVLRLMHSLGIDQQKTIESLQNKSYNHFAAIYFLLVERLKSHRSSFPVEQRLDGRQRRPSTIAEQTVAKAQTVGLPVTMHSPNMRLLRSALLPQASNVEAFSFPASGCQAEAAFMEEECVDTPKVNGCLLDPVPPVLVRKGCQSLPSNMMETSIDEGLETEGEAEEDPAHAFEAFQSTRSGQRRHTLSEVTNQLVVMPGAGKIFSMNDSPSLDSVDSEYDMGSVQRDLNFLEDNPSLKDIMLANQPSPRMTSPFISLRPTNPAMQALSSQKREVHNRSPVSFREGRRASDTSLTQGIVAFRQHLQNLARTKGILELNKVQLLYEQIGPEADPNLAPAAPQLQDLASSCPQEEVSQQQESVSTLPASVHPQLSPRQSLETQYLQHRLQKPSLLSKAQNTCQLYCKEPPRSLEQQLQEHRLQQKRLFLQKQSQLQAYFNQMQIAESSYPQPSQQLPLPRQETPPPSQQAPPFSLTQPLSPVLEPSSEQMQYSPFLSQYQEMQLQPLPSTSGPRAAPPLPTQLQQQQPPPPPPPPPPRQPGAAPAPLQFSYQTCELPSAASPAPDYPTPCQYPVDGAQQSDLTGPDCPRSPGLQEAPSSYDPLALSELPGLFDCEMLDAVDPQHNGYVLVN
BRSK2, sequence (Q8IWQ3 whole entry): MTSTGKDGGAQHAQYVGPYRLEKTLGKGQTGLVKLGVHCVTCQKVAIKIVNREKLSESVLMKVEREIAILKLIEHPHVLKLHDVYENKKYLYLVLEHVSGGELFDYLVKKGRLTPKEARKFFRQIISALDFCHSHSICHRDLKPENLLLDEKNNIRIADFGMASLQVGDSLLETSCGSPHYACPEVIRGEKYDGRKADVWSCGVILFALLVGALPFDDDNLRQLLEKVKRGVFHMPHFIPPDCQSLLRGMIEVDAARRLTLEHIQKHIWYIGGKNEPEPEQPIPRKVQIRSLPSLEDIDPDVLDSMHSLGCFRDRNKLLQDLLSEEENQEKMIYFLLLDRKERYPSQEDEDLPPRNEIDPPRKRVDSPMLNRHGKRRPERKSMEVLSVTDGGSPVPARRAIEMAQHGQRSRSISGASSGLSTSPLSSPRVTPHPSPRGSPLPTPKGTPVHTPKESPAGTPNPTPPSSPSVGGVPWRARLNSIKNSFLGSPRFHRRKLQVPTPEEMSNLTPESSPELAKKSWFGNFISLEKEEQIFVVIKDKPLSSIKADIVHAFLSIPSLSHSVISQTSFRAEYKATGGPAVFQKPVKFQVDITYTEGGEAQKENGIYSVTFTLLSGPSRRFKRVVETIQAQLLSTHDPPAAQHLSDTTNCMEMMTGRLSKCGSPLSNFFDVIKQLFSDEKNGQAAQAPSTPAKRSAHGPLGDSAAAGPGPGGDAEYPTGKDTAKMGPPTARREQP

SMILES: Nc1cn2cc(-c3cnc4c(c3)N(C(=O)OC3CCCCC3)CCO4)ccc2n1 [Zharp1-163]
- inhibition at 1 µM (AKT1; replicate Data1): -1.95%
- inhibition at 1 µM (AKT1; replicate Data2): 6.27%
- inhibition at 1 µM (BRSK2; replicate Data1): -6.15%
- inhibition at 1 µM (BRSK2; replicate Data2): -3.32%
- inhibition at 1 µM (CHK2; replicate Data1): 15.8%
- inhibition at 1 µM (CHK2; replicate Data2): 1.85%
- inhibition at 1 µM (CK1γ3; replicate Data1): 14.1%
- inhibition at 1 µM (CK1γ3; replicate Data2): 20.6%
- inhibition at 1 µM (DYRK1B; replicate Data1): 16.6%
- inhibition at 1 µM (DYRK1B; replicate Data2): 9.23%
- inhibition at 1 µM (IRAK4; replicate Data1): 8.12%
- inhibition at 1 µM (IRAK4; replicate Data2): 17.2%
- inhibition at 1 µM (MAPKAPK2; replicate Data1): -3.5%
- inhibition at 1 µM (MAPKAPK2; replicate Data2): -31.8%
- inhibition at 1 µM (MLK1; replicate Data1): 21.2%
- inhibition at 1 µM (MLK1; replicate Data2): 32.7%
- inhibition at 1 µM (MRCKβ; replicate Data1): -0.71%
- inhibition at 1 µM (MRCKβ; replicate Data2): 4.66%
- inhibition at 1 µM (NEK2; replicate Data1): -4.5%
- inhibition at 1 µM (NEK2; replicate Data2): 1.76%
- inhibition at 1 µM (PKACα; replicate Data1): -0.64%
- inhibition at 1 µM (PKACα; replicate Data2): 3.94%
- inhibition at 1 µM (PLK1; replicate Data1): -5.06%
- inhibition at 1 µM (PLK1; replicate Data2): -18%
- inhibition at 1 µM (QIK; replicate Data1): 9.18%
- inhibition at 1 µM (QIK; replicate Data2): 2.94%
- inhibition at 1 µM (RIPK2; replicate Data1): -0.35%
- inhibition at 1 µM (RIPK2; replicate Data2): -3.05%
